{
  "source": "patent US20130337095A1",
  "about": "“ANTIMICROBIAL COMPOSITION AND ITS METHOD OF USE” (Waikatolink Limited, priority 2012, published 2013)",
  "format_in_all_cases": "cell-based",
  "key": {"[1]": {"system": "Streptococcus agalactiae (NZRM 2721, ATCC 27956)", "experiment": "MIC assay against S. agalactiae", "procedure": "(§1) To exemplify the concept of the present invention, the in vitro activity of three novel plant extracts melaleuca oil, manuka oil, and black walnut hull extract in a specific ratio described herein, were tested against an isolate of various microbes (methicillin-sensitive S. aureus, methicillin-resistant S. aureus, S. pyogenes, S. agalactiae, S. uberis, E. coli, C. albicans) from a reference library.\n(§2) MIC90 refers to the minimum inhibitory concentration required to inhibit the growth of 90% of the organisms. The methods and materials used for this preliminary study are outlined in Example 5.\n(§3) The test formulation, comprising three novel plant extracts melaleuca oil, manuka oil, and black walnut hull extract in a specific ratio described herein, was serially diluted to give 11 different concentrations. The diluted samples were then incubated with individual microbes, and the MICs were determined as the lowest concentration of test substance that inhibited the growth of the microbe as determined by measurement of OD650 nm using a VersaMax 96 well plate reader. […]"}, "[2]": {"system": "Staphylococcus aureus (NZCC 4410, ATCC 33591, Strain 328 methicillin resistant)", "experiment": "MIC assay against methicillin-resistant S. aureus", "procedure": "as §1, §2, §3"}, "[3]": {"system": "Escherichia coli (NZRN 2220, ATCC 291214)", "experiment": "MIC assay against E. coli", "procedure": "as §1, §2, §3"}, "[4]": {"system": "Pseudomonas aeruginosa (ESR strain 981, NTC 10662, ATCC 25668)", "experiment": "MIC assay, in-vitro anti P. aeruginosa activity", "conditions": "antibiotics; for MIC90: Pseudomonas aeruginosa, ATCC25668", "procedure": "To exemplify the concept of the present invention, the in vitro activity of three novel plant extracts melaleuca oil, manuka oil, and black walnut hull extract, and blends of these extracts, were tested against an isolate of Pseudomonas aeruginosa from a reference library. MIC90 refers to the minimum inhibitory concentration required to inhibit the growth of 90% of the organisms. The methods and materials used for this preliminary study are outlined in Example 3.\n• The methodology used in this study is based on standard MIC assay methods referenced in numerous publications. • Each of the extracts was serially diluted to give 11 different concentrations. The diluted samples were then incubated with the Pseudomonas aeruginosa (ESR strain 981, NTC 10662, ATCC 25668, DSM 46358, NC/MB 13063). The MICs were determined as the lowest concentration of each extract that inhibits growth of the bacteria as determined by measurement of OD650 nm using a VersaMax 96 well plate reader.\n• Tryptic soy agar base (Bacto Difco Media Cat. No. 236940, Becton Dickinson and company). • Mueller II broth cation-adjusted (BBL media Cat. No. 212332, Becton Dickinson and company).\n• a) The isolate of Pseudomonas aeruginosa was streaked from −70° C. cryostocks onto Tryptic Soy Agar (TSA) plates and incubated for 24-48 hrs at 37° C. until visible single colonies developed. • b) One colony was picked, using a sterile inoculating loop and used to inoculate sterile 10 ml universals of Mueller II Cation-adjusted broth. Inoculated broths were incubated for approx 18 hrs at 37° C. • c) Following overnight incubation the culture was diluted with fresh sterile Mueller II cation adjusted broth to an OD650 nm of approximately 0.1, equivalent to approx […] (cell number and OD650 nm was determined and optimised prior to commencement of MIC testing). This is the seed broth which was used to inoculate the test wells in each plate. The seed culture was held at 4° C. until required for plating. • d) Stock solutions of each test extract were prepared so that their concentration is 64 μg/ml in the appropriate formulation in Mueller II cation adjusted broth. Once the extract was added to the broth it was mixed using a vortex mixer for approx 30 sec to ensure homogenous dispersion throughout the broth solution. • e) A 96 well microtitre plate was then set up as follows: To all wells, except the first in every row, 100 μl of sterile Mueller II cation adjusted broth was added. The plate was prepared up to 24 hrs in advance and held at −20° C. until ready for use. • f) If the plate was prepared in advance, it needed to be thawed at room temperature. […]"}, "[5]": {"system": "Streptococcus uberis (NZRM 2266 NCTC 3858)", "experiment": "MIC assay against S. uberis", "procedure": "as §1, §2, §3"}, "Streptococcus pyogenes": {"system": "Streptococcus pyogenes", "experiment": "MIC assay against S. pyogenes", "procedure": "as §1, §2, §3"}, "[6]": {"system": "Staphylococcus aureus (NZCC865, ATCC12598)", "experiment": "MIC assay against S. aureus (methicillin-sensitive)", "procedure": "as §1, §2, §3"}},
  "note": "Counter-ions that a name gives are not always drawn. Like-named read-outs stand apart in the source and are kept apart here.",
  "data": [
    {"compound": "CC1=C(C(=O)O)N2C(=O)[C@@H](NC(=O)[C@H](N)c3ccccc3)[C@H]2SC1", "note": "[Cephalexin, Cephalexin hydrate]", "values": [
      {"measurement": "MIC antibiotic reference 16 h", "setting": "[1]; 16 h", "result": 0.098, "unit": "µg/mL"},
      {"measurement": "MIC antibiotic reference 24 h", "setting": "[1]; 24 h", "result": 0.098, "unit": "µg/mL"}
    ]},
    {"compound": "C[C@H]1c2cccc(O)c2C(=O)C2=C(O)[C@]3(O)C(=O)C(C(N)=O)=C(O)[C@@H](N(C)C)[C@@H]3[C@@H](O)[C@@H]21", "note": "[Doxycycline]", "values": [
      {"measurement": "MIC antibiotic reference 16 h", "setting": "[2]; 16 h", "result": 0.05, "unit": "µg/mL"}
    ]},
    {"compound": "CCN1CCN(c2cc3c(cc2F)c(=O)c(C(=O)O)cn3C2CC2)CC1", "note": "[Enfrofloxacin]", "values": [
      {"measurement": "MIC antibiotic reference 24 h", "setting": "[2]; 24 h", "result": 0.05, "unit": "µg/mL"}
    ]},
    {"compound": "O=C(O)c1cn(C2CC2)c2cc(N3CCNCC3)c(F)cc2c1=O", "note": "[G. ciprofloxacin, ciprofloxacin]", "values": [
      {"measurement": "MIC antibiotic reference 16 h", "setting": "[3]; 16 h", "result": 0.049, "unit": "µg/mL"},
      {"measurement": "MIC antibiotic reference 24 h", "setting": "[3]; 24 h", "result": 0.049, "unit": "µg/mL"},
      {"measurement": "MIC90", "setting": "[4]; 18 h, read-out: MIC90 18 h", "result": 0.049, "unit": "µg/mL"},
      {"measurement": "MIC90", "setting": "[4]; 24 h, read-out: MIC90 24 h", "result": 0.098, "unit": "µg/mL"}
    ]},
    {"compound": "CC1(C)S[C@@H]2[C@H](NC(=O)Cc3ccccc3)C(=O)N2[C@H]1C(=O)O", "note": "[Penicillin, Penicillin G sodium salt]", "values": [
      {"measurement": "MIC antibiotic reference 16 h", "setting": "[5]; 16 h", "result": 0.049, "unit": "µg/mL"},
      {"measurement": "MIC antibiotic reference 24 h", "setting": "[5]; 24 h", "result": 0.049, "unit": "µg/mL"},
      {"measurement": "MIC antibiotic reference 16 h", "setting": "Streptococcus pyogenes; 16 h", "result": 0.049, "unit": "µg/mL"},
      {"measurement": "MIC antibiotic reference 24 h", "setting": "Streptococcus pyogenes; 24 h", "result": 0.049, "unit": "µg/mL"}
    ]},
    {"compound": "[H]/N=C(/N)N[C@H]1[C@H](O)[C@@H](O)[C@H](O[C@@H]2O[C@@H](C)[C@](O)(C=O)[C@H]2O[C@@H]2O[C@@H](CO)[C@H](O)[C@@H](O)[C@@H]2NC)[C@@H](N/C(N)=N\\[H])[C@@H]1O", "note": "[Streptomycin]", "values": [
      {"measurement": "MIC antibiotic reference 16 h", "setting": "[6]", "result": 0.003, "unit": "µg/mL"}
    ]},
    {"compound": "gentamicin [F. gentamicin]", "values": [
      {"measurement": "MIC90 18 h", "setting": "[4]; 18 h", "result": 0.098, "unit": "µg/mL"},
      {"measurement": "MIC90 24 h", "setting": "[4]; 24 h", "result": 3.125, "unit": "µg/mL"}
    ]}
  ]
}
